{
  "source": "patent US20180106727A1",
  "about": "“ULTRA-HIGH-SENSITIVE ASSAY OF PROTEIN AND NUCLEIC ACID AND KIT, AND NOVEL ENZYME SUBSTRATE” (priority 2011, published 2018)",
  "key": {"[1]": {"test_system": "3α-hydroxysteroid dehydrogenase", "assay": "Rotation numbers of thio-NAD cycling reactions with 3α-hydroxyandrostanes", "assay_type": "biochemical", "method": "The cycling system using thio-NAD(P) in the enzymatic cycling system is a unique cycling system that appeared relatively recently. With this system, the cycling is performed that is, thio-NAD(P)/thio-NAD(P)H using dehydrogenase (DH) with NAD(P)/NAD(P)H as a co-enzyme under conditions of coexistence of NAD(P)/NAD(P)H and its analog, and the amplification and the quantification are performed with thio-NAD(P)H (maximum absorption wavelength: 400 nm, molar absorption coefficient=11,900) as a substrate of dehydrogenase. The principle for measurement of the thio-NAD(P)cycling system is as described below."}, "β-galactosidase": {"target": "β-galactosidase (Escherichia coli, UniProt P00722)", "sequence (P00722 2-1024)": "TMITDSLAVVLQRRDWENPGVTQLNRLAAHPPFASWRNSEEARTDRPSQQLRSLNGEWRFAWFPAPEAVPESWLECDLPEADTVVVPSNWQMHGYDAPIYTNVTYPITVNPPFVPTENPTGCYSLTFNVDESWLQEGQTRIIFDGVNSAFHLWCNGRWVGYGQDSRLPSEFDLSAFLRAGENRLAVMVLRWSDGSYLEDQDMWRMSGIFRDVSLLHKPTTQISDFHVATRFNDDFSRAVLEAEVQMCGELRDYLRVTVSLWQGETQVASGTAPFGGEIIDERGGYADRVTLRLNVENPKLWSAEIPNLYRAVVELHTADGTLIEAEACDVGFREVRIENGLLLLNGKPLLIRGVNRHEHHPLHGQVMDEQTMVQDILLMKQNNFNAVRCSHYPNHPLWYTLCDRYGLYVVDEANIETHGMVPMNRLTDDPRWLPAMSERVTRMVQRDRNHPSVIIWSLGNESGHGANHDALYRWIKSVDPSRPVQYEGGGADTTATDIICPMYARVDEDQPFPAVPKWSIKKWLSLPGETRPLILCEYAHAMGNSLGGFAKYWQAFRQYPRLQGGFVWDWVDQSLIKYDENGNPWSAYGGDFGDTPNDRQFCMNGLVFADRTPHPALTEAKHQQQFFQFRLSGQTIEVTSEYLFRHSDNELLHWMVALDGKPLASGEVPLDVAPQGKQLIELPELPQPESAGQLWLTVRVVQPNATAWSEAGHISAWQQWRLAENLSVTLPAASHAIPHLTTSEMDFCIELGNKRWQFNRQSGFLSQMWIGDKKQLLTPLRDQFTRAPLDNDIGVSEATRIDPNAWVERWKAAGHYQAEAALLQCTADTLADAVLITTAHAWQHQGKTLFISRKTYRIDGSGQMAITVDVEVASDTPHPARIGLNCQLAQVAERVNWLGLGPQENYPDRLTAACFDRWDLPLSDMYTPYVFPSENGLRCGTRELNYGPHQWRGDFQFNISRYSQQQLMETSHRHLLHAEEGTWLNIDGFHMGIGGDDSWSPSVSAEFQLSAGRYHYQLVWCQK", "conditions": "β-Gal assay", "procedure": "0.1 M pyrophosphate buffer solution (pH 9.0); 1.2 mM thio-NAD; 3.6 mM NADH; 40 U/mL 3α-hydroxysteroid dehydrogenase\nTo a flat-bottomed microplate well, 25 μL of a phosphate buffer solution (pH 7.3) containing the standard substance (β-galactosidase) in a range of 0 to 200 pg/ml was added, and subsequently, 25 μL of Reaction Test Solution A was added to the well, respectively. The reaction solution was mixed, and the microplate was incubated at 37° C. for 60 minutes. Then, 50 μL of Reaction Test Solution B was added to each well, respectively, and the absorbance was measured for 30 minutes using a 405 nm filter with a microplate reader (MTP-500 manufactured by CORONA CORPORATION) while warming the microplate to 37° C. The amount of the absorbance change for 30 minutes was plotted with respect to the concentrations of the standard substance.\nTo a flat-bottomed microplate well, 50 μL of a phosphate buffer solution (pH 7.7) containing the standard substance (β-galactosidase) in a range of 0 to 250 pg/ml was added, and subsequently, 50 μL of Reaction Test Solution was added to each well, respectively. The absorbance was measured for 120 minutes using a 405 nm filter with a microplate reader (MTP-500 manufactured by CORONA CORPORATION) while warming the microplate to 37° C. The amount of the absorbance change for 120 minutes was plotted with respect to the concentrations of the standard substance.\n0.1 M pyrophosphate buffer solution (pH 9.0); 4.8 mM thio-NAD; 0.4 mM NADH; 40 U/mL 3α-hydroxysteroid dehydrogenase\nTo a flat-bottomed microplate well, 25 μL of a phosphate buffer solution (pH 7.5) containing the standard substance (β-galactosidase) in a range of 0 to 200 pg/mL was added, and subsequently, 25 μL of Reaction Test Solution A was added to the well, respectively. The reaction solution was mixed, and the microplate was incubated at 37° C. for 60 minutes. Then, 50 μL of Reaction Test Solution B was added to each well, respectively, and the absorbance was measured for 30 minutes using a 405 nm filter with a microplate reader (MTP-500 manufactured by CORONA CORPORATION) while warming the microplate to 37° C. The amount of the absorbance change for 30 minutes was plotted with respect to the concentrations of the standard substance.\n0.1 M pyrophosphate buffer solution (pH 9.8); 1.2 mM thio-NAD; 1 mM NADH; 40 U/mL 3α-hydroxysteroid dehydrogenase\nTo a flat-bottomed microplate well, 25 μL of a phosphate buffer solution (pH 7.5) containing the standard substance (β-galactosidase) in a range of 0 to 200 pg/mL was added, and subsequently, 25 μL of Reaction Test Solution A was added to the well, respectively. The reaction solution was mixed, and the microplate was incubated at 37° C. for 60 minutes."}, "[2]": {"test_system": "3α-hydroxysteroid dehydrogenase", "assay": "Dehydrogenation reaction of androsterone, reaction rate with thio-NAD versus NAD as co-enzyme", "assay_type": "biochemical", "source_text": "The substrate for the cycling is preferably those having fast enzyme reaction rate (having high activity for the substrate) and reacting even at a low concentration (having low Km value). In addition, a desirable property as the dehydrogenase is the reaction rate when using thio-NAD(P) as a co-enzyme. In the dehydrogenation reaction of androsterone by other many dehydrogenases, the reaction rate when thio-NAD is used as a co-enzyme is within several % of the reaction rate when NAD is used, while with 3α-hydroxysteroid dehydrogenase, the reaction rate with thio-NAD is about 59% of the reaction rate with NAD. Thus, 3α-hydroxysteroid dehydrogenase has a desirable property as the cycling enzyme of the present invention. Furthermore, widely used alkaline phosphatase (ALP) can be used as the labeling enzyme to be combined, and the combination with alkaline phosphatase is preferable also in a point of easy synthesis of a phosphate ester of an androsterone derivative at the position 3 that is a substrate of alkaline phosphatase."}, "[3]": {"conditions": "relative to 5α-Androsterone = 100"}, "[4]": {"conditions": "thio-NAD cycling, compound as substrate"}, "[5]": {"conditions": "conventional substrate, no cycling method printed"}},
  "note": "Like-named read-outs stand apart in the source and are kept apart here.",
  "data": [
    {"smiles": "C[C@@]12CCC[C@H]1[C@@H]1CC[C@H]3C[C@H](O)CC[C@]3(C)[C@H]1CC2", "note": "[5α-17-deoxo, 3α-Hydroxy-5α-Androstane]", "values": [
      {"measurement": "Rotation number, Relative value (%)", "setting": "[1]; [3]", "result": 39, "unit": "%"},
      {"measurement": "Rotation number of cycling reaction", "setting": "[1]; [4]", "result": 241, "unit": "Cycle/min"}
    ]},
    {"smiles": "C[C@]12CC[C@@H](O)C[C@@H]1CC[C@@H]1[C@@H]2CC[C@]2(C)C(=O)CC[C@@H]12", "note": "[5α-Androsterone, reference compound]", "values": [
      {"measurement": "Rotation number, Relative value (%)", "setting": "[1]", "result": 100, "unit": "%"}
    ]},
    {"smiles": "Cc1cc(=O)oc2cc(O[C@@H]3O[C@H](CO)[C@H](O)[C@H](O)[C@H]3O)ccc12", "note": "[4-MUG, reference compound]", "values": [
      {"measurement": "Detection limit", "setting": "β-galactosidase; [5]", "result": "9.76e-18", "unit": "mol"},
      {"measurement": "Quantification limit", "setting": "β-galactosidase; [5]", "result": "3.25e-17", "unit": "mol"}
    ]},
    {"smiles": "C[C@H](CCC(=O)NCC(=O)O)[C@H]1CC[C@H]2[C@@H]3[C@H](O)C[C@@H]4C[C@H](O)CC[C@]4(C)[C@H]3CC[C@]12C", "note": "[Glycochenodeoxycholate, Sodium glycochenodoxycholate, reference compound]", "values": [
      {"measurement": "Rotation number, Relative value (%)", "setting": "[1]; [3]", "result": 21, "unit": "%"},
      {"measurement": "Rotation number of cycling reaction", "setting": "[1]; [4]", "result": 129, "unit": "Cycle/min"}
    ]},
    {"smiles": "CO[C@H]1CC[C@H]2[C@@H]3CC[C@@H]4C[C@H](O)CC[C@]4(C)[C@H]3CC[C@]12C", "note": "[5β-17β-OCH3]", "values": [
      {"measurement": "Rotation number, Relative value (%)", "setting": "[1]; [3]", "result": 74, "unit": "%"},
      {"measurement": "Rotation number of cycling reaction", "setting": "[1]; [4]", "result": 458, "unit": "Cycle/min"}
    ]},
    {"smiles": "NC(=S)c1ccc[n+]([C@@H]2O[C@H](COP(=O)([O-])OP(=O)(O)OC[C@H]3O[C@@H](n4cnc5c(N)ncnc54)[C@H](O)[C@@H]3O)[C@@H](O)[C@H]2O)c1", "note": "[thio-NAD]", "values": [
      {"measurement": "Reaction rate with thio-NAD relative to the reaction rate with NAD", "setting": "[2]", "result": "about 59%"}
    ]},
    {"smiles": "C[C@]12CC[C@@H](OP(=O)(O)O)C[C@@H]1CC[C@@H]1[C@@H]2CC[C@]2(C)C(=O)CC[C@@H]12", "note": "[androsterone 3-phosphate, reference compound]", "values": [
      {"measurement": "Effect of the substrate on the cycling reaction", "setting": "[1]", "result": "inhibition of the substrate on the cycling reaction"}
    ]},
    {"smiles": "C[C@]12CC[C@@H](O[C@@H]3O[C@H](CO)[C@H](O)[C@H](O)[C@H]3O)C[C@H]1CC[C@@H]1[C@@H]2CC[C@]2(C)C(=O)CC[C@@H]12", "note": "[5β-AG, 5β-Androsterone-3β-D-Galactoside]", "values": [
      {"measurement": "Detection limit", "setting": "β-galactosidase; One-step", "result": "3.31e-19", "unit": "mol"},
      {"measurement": "Quantification limit", "setting": "β-galactosidase; One-step", "result": "1.1e-18", "unit": "mol"},
      {"measurement": "Detection limit", "setting": "β-galactosidase; Two-steps", "result": "7.48e-20", "unit": "mol"},
      {"measurement": "Quantification limit", "setting": "β-galactosidase; Two-steps", "result": "2.49e-19", "unit": "mol"}
    ]},
    {"smiles": "C[C@]12CC[C@@H](O[C@@H]3O[C@H](CO)[C@H](O)[C@H](O)[C@H]3O)C[C@@H]1CC[C@@H]1[C@@H]2CC[C@]2(C)C(=O)CC[C@@H]12", "note": "[5α-AG, 5α-androsterone 3-β-galactoside]", "values": [
      {"measurement": "Detection limit", "setting": "β-galactosidase; Two-steps", "result": "3.89e-19", "unit": "mol"},
      {"measurement": "Quantification limit", "setting": "β-galactosidase; Two-steps", "result": "1.3e-18", "unit": "mol"}
    ]},
    {"smiles": "O=[N+]([O-])c1ccccc1O[C@@H]1O[C@H](CO)[C@H](O)[C@H](O)[C@H]1O", "note": "[ONPG, o-Nitrophenyl β-D-Galactopyranoside, reference compound]", "values": [
      {"measurement": "Detection limit", "setting": "β-galactosidase; [5]", "result": "4.5e-17", "unit": "mol"},
      {"measurement": "Quantification limit", "setting": "β-galactosidase; [5]", "result": "1.5e-16", "unit": "mol"}
    ]},
    {"smiles": "C[C@H]1CC[C@H]2[C@@H]3CC[C@@H]4C[C@H](O)CC[C@]4(C)[C@H]3CC[C@]12C", "note": "[5β-17-CH3, 3α-Hydroxy-17β-methyl-5β-Androstane]", "values": [
      {"measurement": "Rotation number, Relative value (%)", "setting": "[1]; [3]", "result": 18, "unit": "%"},
      {"measurement": "Rotation number of cycling reaction", "setting": "[1]; [4]", "result": 114, "unit": "Cycle/min"}
    ]},
    {"smiles": "C[C@]12CCC(=O)C[C@@H]1CC[C@@H]1[C@@H]2CC[C@]2(C)[C@@H](O)CC[C@@H]12", "note": "[5α-DHT, 5α-Dihydrotestosterone, reference compound]", "values": [
      {"measurement": "Rotation number of cycling reaction", "setting": "[1]", "result": 535, "unit": "Cycle/min"},
      {"measurement": "Rotation number, Relative value (%)", "setting": "[1]", "result": 86, "unit": "%"}
    ]},
    {"smiles": "CO[C@H]1CC[C@H]2[C@@H]3CC[C@@H]4C[C@H](O[C@@H]5O[C@H](CO)[C@H](O)[C@H](O)[C@H]5O)CC[C@]4(C)[C@H]3CC[C@]12C", "note": "[17-OMe 5β-AG]", "values": [
      {"measurement": "Detection limit", "setting": "β-galactosidase; One-step", "result": "3.21e-19", "unit": "mol"},
      {"measurement": "Quantification limit", "setting": "β-galactosidase; One-step", "result": "1.07e-18", "unit": "mol"},
      {"measurement": "Detection limit", "setting": "β-galactosidase; Two-steps", "result": "1.09e-19", "unit": "mol"},
      {"measurement": "Quantification limit", "setting": "β-galactosidase; Two-steps", "result": "3.64e-19", "unit": "mol"}
    ]},
    {"smiles": "C=C1CC[C@H]2[C@@H]3CC[C@H]4C[C@H](O)CC[C@]4(C)[C@H]3CC[C@]12C", "note": "[5α-17-CH2, 3α-Hydroxy-17-methylene-5α-Androstane]", "values": [
      {"measurement": "Rotation number, Relative value (%)", "setting": "[1]; [3]", "result": 49, "unit": "%"},
      {"measurement": "Rotation number of cycling reaction", "setting": "[1]; [4]", "result": 308, "unit": "Cycle/min"}
    ]},
    {"smiles": "C[C@]12CC[C@@H](O)C[C@H]1CC[C@@H]1[C@@H]2CC[C@]2(C)C(=O)CC[C@@H]12", "note": "[5β-Androsterone, reference compound]", "values": [
      {"measurement": "Rotation number of cycling reaction", "setting": "[1]", "result": 384, "unit": "Cycle/min"},
      {"measurement": "Rotation number, Relative value (%)", "setting": "[1]", "result": 62, "unit": "%"}
    ]},
    {"smiles": "C[C@H]1CC[C@H]2[C@@H]3CC[C@H]4C[C@H](O)CC[C@]4(C)[C@H]3CC[C@]12C", "note": "[5α-17-CH3, 3α-Hydroxy-17β-methyl-5α-Androstane]", "values": [
      {"measurement": "Rotation number, Relative value (%)", "setting": "[1]; [3]", "result": 32, "unit": "%"},
      {"measurement": "Rotation number of cycling reaction", "setting": "[1]; [4]", "result": 200, "unit": "Cycle/min"}
    ]}
  ]
}
